Activity calls are given as the source filed them. The calls are words filed in the database; no cut-off is given here.
Key:
HCCLM3 [1] = test: Inhibition of human HCCLM3 cells migration at 10 uM for 6 hrs by wound-healing assay; assay type: functional, cell-based
HCCLM3 [2] = test: Inhibition of human HCCLM3 cells migration at 10 uM for 6 hrs by matrigel invasion assay; assay type: functional, cell-based
HCCLM3 [3] = test: Inhibition of CXCL12-induced human HCCLM3 cells migration pretreated at 10 uM for 6 hrs by wound-healing assay; assay type: functional, cell-based
HCCLM3 [4] = test: Inhibition of CXCL12-induced human HCCLM3 cells migration pretreated at 10 uM for 6 hrs by matrigel invasion assay; assay type: functional, cell-based
PC-3 = test: Antiproliferative activity against human PC3 cells assessed as inhibition of cell proliferation at 10 to 100 uM after 24 to 72 hrs by MTT assay; assay type: functional, cell-based
[5] = molecular target: Tyrosine-protein kinase JAK2 (Homo sapiens) (UniProt O60674); test: Inhibition of JAk2 activation in human HepG2 cells assessed as inhibition of phosphorylation at 10 uM by Western blot analysis; assay type: cell-based; details: TDE = time-dependent effect
[6] = molecular target: Proto-oncogene tyrosine-protein kinase Src (Homo sapiens) (UniProt P12931); test: Inhibition of Src kinase activation in human HepG2 cells assessed as inhibition of phosphorylation at 10 uM by Western blot analysis; assay type: cell-based; details: TDE = time-dependent effect
[7] = molecular target: Signal transducer and activator of transcription 3 (Homo sapiens) (UniProt P40763); test: Inhibition of STAT3 activation in human HepG2 cells assessed as maximal inhibition of phosphorylation at tyrosine 705 at 10 uM at 4 to 6 hrs by Western blot analysis; assay type: cell-based
[8] = molecular target: Signal transducer and activator of transcription 3 (Homo sapiens) (UniProt P40763); test: Inhibition of STAT3 activation in human HepG2 cells assessed as inhibition of phosphorylation at tyrosine 705 at 10 uM by Western blot analysis; assay type: cell-based; details: TDE = time-dependent effect
[9] = molecular target: Signal transducer and activator of transcription 3 (Homo sapiens) (UniProt P40763); test: Inhibition of STAT3-DNA binding in human HepG2 cells after 6 hrs by ELISA based DNA binding assay; assay type: cell-based
Hep 3B2 [10] = test: Antiproliferative activity against human Hep3B cells assessed as inhibition of cell proliferation at 10 to 100 uM by MTT dye uptake assay; assay type: functional, cell-based; details: TDE = time-dependent effect
PLC-PRF-5 [11] = test: Antiproliferative activity against human PLC/PRF/5 cells assessed as inhibition of cell proliferation at 10 to 100 uM by MTT dye uptake assay; assay type: functional, cell-based; details: TDE = time-dependent effect
Huh-7 [12] = test: Antiproliferative activity against human HuH7 cells assessed as inhibition of cell proliferation at 10 to 100 uM by MTT dye uptake assay; assay type: functional, cell-based; details: TDE = time-dependent effect
HepG2 [13] = test: Antiproliferative activity against human HepG2 cells assessed as inhibition of cell proliferation at 10 to 100 uM by MTT dye uptake assay; assay type: functional, cell-based; details: TDE = time-dependent effect
Hep 3B2 [14] = test: Antiproliferative activity against human Hep3B cells assessed as inhibition of cell proliferation after 24 to 72 hrs by MTT dye uptake assay; assay type: functional, cell-based
PLC-PRF-5 [15] = test: Antiproliferative activity against human PLC/PRF/5 cells assessed as inhibition of cell proliferation after 24 to 72 hrs by MTT dye uptake assay; assay type: functional, cell-based
Huh-7 [16] = test: Antiproliferative activity against human HuH7 cells assessed as inhibition of cell proliferation after 24 to 72 hrs by MTT dye uptake assay; assay type: functional, cell-based
HepG2 [17] = test: Antiproliferative activity against human HepG2 cells assessed as inhibition of cell proliferation after 24 to 72 hrs by MTT dye uptake assay; assay type: functional, cell-based
HepG2 [18] = test: Antiproliferative activity against human HepG2 cells assessed as inhibition of cell proliferation at 100 uM after 2 hrs by MTT assay; assay type: functional; details: for inhibition at 100 µM: HepG2, 2 h
MCF7 = test: Antiproliferative activity against human MCF7 cells assessed as inhibition of cell proliferation at 100 uM after 2 hrs by MTT assay; assay type: functional; details: MCF7, 2 h
[19] = molecular target: Signal transducer and activator of transcription 3 (Homo sapiens) (UniProt P40763); test: Inhibition of STAT3-DNA binding in human HepG2 cells at 10 uM after 6 hrs by ELISA based DNA binding assay; assay type: cell-based

Signal transducer and activator of transcription 3 (Homo sapiens), sequence (P40763 whole entry): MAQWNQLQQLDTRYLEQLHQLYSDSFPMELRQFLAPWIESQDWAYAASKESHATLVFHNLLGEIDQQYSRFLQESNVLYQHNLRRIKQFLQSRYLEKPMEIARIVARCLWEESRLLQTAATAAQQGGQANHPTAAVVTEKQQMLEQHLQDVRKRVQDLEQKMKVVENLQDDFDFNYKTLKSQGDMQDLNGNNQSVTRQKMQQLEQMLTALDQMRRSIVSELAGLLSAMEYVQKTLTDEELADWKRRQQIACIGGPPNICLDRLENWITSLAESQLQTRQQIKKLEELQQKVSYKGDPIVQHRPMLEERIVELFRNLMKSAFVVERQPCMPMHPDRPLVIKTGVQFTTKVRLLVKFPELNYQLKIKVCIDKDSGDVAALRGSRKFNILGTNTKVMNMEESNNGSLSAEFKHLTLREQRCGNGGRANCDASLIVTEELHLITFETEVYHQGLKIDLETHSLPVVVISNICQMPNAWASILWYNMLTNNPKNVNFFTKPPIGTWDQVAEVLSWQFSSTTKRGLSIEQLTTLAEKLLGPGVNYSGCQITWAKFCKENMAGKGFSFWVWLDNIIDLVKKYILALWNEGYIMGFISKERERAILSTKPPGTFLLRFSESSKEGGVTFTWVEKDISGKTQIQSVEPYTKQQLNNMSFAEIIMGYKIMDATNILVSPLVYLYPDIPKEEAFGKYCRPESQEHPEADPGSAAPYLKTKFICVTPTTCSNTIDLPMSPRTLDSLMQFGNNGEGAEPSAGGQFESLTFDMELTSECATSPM
Tyrosine-protein kinase JAK2 (Homo sapiens), sequence (O60674 whole entry): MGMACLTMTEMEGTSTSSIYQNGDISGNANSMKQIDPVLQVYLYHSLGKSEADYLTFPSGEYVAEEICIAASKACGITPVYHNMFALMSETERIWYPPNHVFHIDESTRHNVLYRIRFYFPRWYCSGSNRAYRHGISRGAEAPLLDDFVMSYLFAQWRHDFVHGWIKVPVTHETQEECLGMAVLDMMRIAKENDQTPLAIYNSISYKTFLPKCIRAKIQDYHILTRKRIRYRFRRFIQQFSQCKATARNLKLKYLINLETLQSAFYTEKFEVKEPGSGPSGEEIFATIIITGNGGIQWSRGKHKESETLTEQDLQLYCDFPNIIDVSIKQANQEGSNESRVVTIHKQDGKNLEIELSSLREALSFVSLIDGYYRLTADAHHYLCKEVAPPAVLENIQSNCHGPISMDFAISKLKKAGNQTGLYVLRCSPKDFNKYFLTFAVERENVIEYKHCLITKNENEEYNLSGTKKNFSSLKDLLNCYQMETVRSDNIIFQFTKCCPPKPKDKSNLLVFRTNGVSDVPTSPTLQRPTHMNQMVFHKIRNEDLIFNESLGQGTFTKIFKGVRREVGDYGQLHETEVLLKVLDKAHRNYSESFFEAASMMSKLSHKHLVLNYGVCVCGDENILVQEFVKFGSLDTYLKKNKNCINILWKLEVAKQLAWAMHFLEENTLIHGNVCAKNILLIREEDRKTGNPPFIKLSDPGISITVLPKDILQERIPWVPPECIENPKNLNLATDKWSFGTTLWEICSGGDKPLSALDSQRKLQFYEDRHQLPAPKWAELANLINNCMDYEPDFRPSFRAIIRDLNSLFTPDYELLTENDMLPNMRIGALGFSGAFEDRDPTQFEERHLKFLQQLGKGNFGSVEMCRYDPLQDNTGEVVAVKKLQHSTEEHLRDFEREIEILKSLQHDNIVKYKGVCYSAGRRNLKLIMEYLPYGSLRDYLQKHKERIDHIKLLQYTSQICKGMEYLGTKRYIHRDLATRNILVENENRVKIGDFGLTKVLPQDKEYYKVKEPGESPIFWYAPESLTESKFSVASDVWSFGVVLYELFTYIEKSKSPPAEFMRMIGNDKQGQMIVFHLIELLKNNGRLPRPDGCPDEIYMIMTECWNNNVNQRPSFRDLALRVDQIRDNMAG
Proto-oncogene tyrosine-protein kinase Src (Homo sapiens), sequence (P12931 2-536 limits assumed): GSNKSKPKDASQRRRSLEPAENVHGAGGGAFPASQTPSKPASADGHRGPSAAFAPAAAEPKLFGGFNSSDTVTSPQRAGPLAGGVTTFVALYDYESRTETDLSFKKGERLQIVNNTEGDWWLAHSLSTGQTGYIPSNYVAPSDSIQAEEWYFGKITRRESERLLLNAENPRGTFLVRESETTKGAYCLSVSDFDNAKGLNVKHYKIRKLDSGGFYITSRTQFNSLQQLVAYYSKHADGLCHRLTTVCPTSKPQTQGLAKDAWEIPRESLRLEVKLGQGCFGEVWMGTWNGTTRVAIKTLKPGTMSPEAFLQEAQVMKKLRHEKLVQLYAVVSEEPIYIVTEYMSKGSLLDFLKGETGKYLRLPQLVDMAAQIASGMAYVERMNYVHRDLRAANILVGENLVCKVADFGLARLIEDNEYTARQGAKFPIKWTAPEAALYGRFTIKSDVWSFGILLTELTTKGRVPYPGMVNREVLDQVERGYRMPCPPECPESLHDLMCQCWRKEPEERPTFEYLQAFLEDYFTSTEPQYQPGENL

Compound: C=CCN1Cc2c(nn(-c3ccc(Cl)cc3Cl)c2NC(=O)Nc2ccccc2)C(F)(F)C1c1ccc(OC)cc1 (stereo not given)
- inhibition (HCCLM3 [1]): Active
- inhibition (HCCLM3 [2]): Active
- inhibition (HCCLM3 [3]): Active
- inhibition (HCCLM3 [4]): Active
- inhibition (PC-3): inactive
- inhibition [5]: tde
- inhibition [6]: tde
- inhibition [7]: Active
- inhibition [8]: tde
- inhibition [9]: Dose-dependent effect
- inhibition (Hep 3B2 [10]): tde
- inhibition (PLC-PRF-5 [11]): tde
- inhibition (Huh-7 [12]): tde
- inhibition (HepG2 [13]): tde
- inhibition (Hep 3B2 [14]): Dose-dependent effect
- inhibition (PLC-PRF-5 [15]): Dose-dependent effect
- inhibition (Huh-7 [16]): Dose-dependent effect
- inhibition (HepG2 [17]): Dose-dependent effect
- inhibition at 100 µM (HepG2 [18]): 80%
- inhibition at 100 µM (MCF7): 77.4%

Compound: C=CCN1Cc2c(nn(-c3ccc(Cl)cc3Cl)c2NS(=O)(=O)c2ccccc2)C(F)(F)C1c1ccc(OC)cc1 (stereo not given)
- inhibition (HepG2 [18]): inactive
- inhibition at 100 µM (MCF7): 85.3%

Compound: C=CCN1Cc2c(nn(-c3ccc(Cl)cc3Cl)c2NS(=O)(=O)c2ccc(F)cc2)C(F)(F)C1c1ccc(OC)cc1 (stereo not given)
- inhibition (HepG2 [18]): inactive
- inhibition at 100 µM (MCF7): 78.8%

Compound: C=CCN1Cc2c(nn(-c3ccc(Cl)cc3Cl)c2NC(=S)Nc2ccc(C(F)(F)F)cc2)C(F)(F)C1c1ccc(OC)cc1 (stereo not given)
- inhibition [19]: Active
- inhibition (Hep 3B2 [10]): tde
- inhibition (PLC-PRF-5 [11]): tde
- inhibition (Huh-7 [12]): tde
- inhibition (HepG2 [13]): tde
- inhibition (Hep 3B2 [14]): Dose-dependent effect
- inhibition (PLC-PRF-5 [15]): Dose-dependent effect
- inhibition (Huh-7 [16]): Dose-dependent effect
- inhibition (HepG2 [17]): Dose-dependent effect
- inhibition at 100 µM (HepG2 [18]): 85.1%
- inhibition at 100 µM (MCF7): 84.1%
